Tests used:
[1] = Drug excretion in feces of healthy obese adult male human treated with [14C]CP-945,598 at 25 mg, po administered as single dose after 0 to 384 hrs hrs by HPLC method; type: ADME, organism-based; conditions: in vivo
[2] = Drug excretion in urine of healthy obese adult male human treated with [14C]CP-945,598 at 25 mg, po administered as single dose after 0 to 384 hrs hrs by HPLC method; type: ADME, organism-based; conditions: in vivo
Homo sapiens = test: Total drug excretion in healthy obese adult male human treated with [14C]CP-945,598 at 25 mg, po administered as single dose after 0 to 384 hrs hrs by HPLC method; type: ADME, organism-based; conditions: in vivo
Serum [3] = test: Drug level in serum of healthy obese adult male human treated with [14C]CP-945,598 at 25 mg, po administered as single dose after 4 hrs by HPLC method; type: ADME, organism-based; conditions: in vivo
Serum [4] = test: Drug level in serum of healthy obese adult male human treated with [14C]CP-945,598 at 25 mg, po administered as single dose after 24 hrs by HPLC method; type: ADME, organism-based; conditions: in vivo
Cytochrome P450 3A4 = Cytochrome P450 3A4 (Homo sapiens, UniProt P08684); test: Drug metabolism assessed as human recombinant CYP3A4-mediated metabolite formation after 60 mins by HPLC method; type: ADME; conditions: recombinant enzyme, 1 h
Serum [5] = test: Total drug level in serum of healthy obese adult male human treated with [14C]CP-945,598 at 25 mg, po administered as single dose after 48 hrs by HPLC method; type: ADME, organism-based; conditions: in vivo
Serum [6] = test: Drug level in serum of healthy obese adult male human treated with [14C]CP-945,598 at 25 mg, po administered as single dose after 48 hrs by HPLC method; type: ADME, organism-based; conditions: in vivo
Serum [7] = test: Drug level in serum of healthy obese adult male human treated with [14C]CP-945,598 at 25 mg, po administered as single dose after 12 hrs by HPLC method; type: ADME, organism-based; conditions: in vivo
Serum [8] = test: AUC in serum of healthy obese adult male human treated with [14C]CP-945,598 at 25 mg, po administered as single dose after 48 hrs by HPLC method; type: ADME, organism-based; design: time < 48 hr, dose 25 mg, route oral; conditions: in vivo

Sequence of Cytochrome P450 3A4 (P08684 whole entry): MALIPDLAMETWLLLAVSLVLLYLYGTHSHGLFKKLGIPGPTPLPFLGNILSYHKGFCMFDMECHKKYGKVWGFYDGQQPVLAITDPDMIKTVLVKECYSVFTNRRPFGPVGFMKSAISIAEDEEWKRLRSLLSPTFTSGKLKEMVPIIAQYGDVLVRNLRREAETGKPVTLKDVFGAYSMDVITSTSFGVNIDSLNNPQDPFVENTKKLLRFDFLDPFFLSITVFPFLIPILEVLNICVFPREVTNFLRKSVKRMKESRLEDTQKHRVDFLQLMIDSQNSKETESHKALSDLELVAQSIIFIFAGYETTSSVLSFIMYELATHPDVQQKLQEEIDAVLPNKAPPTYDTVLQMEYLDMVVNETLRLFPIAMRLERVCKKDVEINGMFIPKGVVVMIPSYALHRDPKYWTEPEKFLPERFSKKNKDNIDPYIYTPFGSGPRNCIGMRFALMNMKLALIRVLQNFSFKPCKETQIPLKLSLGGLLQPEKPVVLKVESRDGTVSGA

Drug excretion [1] [%] | Drug excretion [2] [%] | Drug excretion (Homo sapiens) [%] | Drug uptake (Serum [3]) [ngequiv/g] | Drug uptake (Serum [4]) [ngequiv/g] | Drug metabolism (Cytochrome P450 3A4) [%] | Drug uptake (Serum [5]) [ngequiv/g] | Drug uptake (Serum [6]) [ngequiv/g] | Drug uptake (Serum [7]) [ngequiv/g] | AUC (Serum [8]) [ngequiv.hr/g] | SMILES
30.9 | 5.4 | 36.3 |  |  |  |  |  |  |  | NC1(C(=O)O)CCN(c2ncnc3c2nc(-c2ccccc2Cl)n3-c2ccc(Cl)cc2)CC1
 |  |  | 10.1 | 10.9 | 13 | 17.9 | 6 | 10.9 | 438 | ON=C1CCN(c2ncnc3c2nc(-c2ccccc2Cl)n3-c2ccc(Cl)cc2)CC1
 | 4.8 | 4.8 |  |  |  |  |  |  |  | NC(=O)C1(NO[C@@H]2O[C@H](CO)[C@@H](O)[C@H](O)[C@H]2O)CCN(c2ncnc3c2nc(-c2ccccc2Cl)n3-c2ccc(Cl)cc2)CC1
1.2 | 0.6 | 1.8 |  |  | 8.8 |  |  |  |  | NC(=O)C1(NO)CCN(c2ncnc3c2nc(-c2ccccc2Cl)n3-c2ccc(Cl)cc2)CC1
